The text below walks through data of patent US10479784B2, “Substituted pyrazin-2-amines as inhibitors of ATR kinase” (Vertex Pharmaceuticals Incorporated, priority 2008, dated 2019).

In test [1] the test system is HCT116 colorectal cancer cells. In words: Cisplatin Sensitization Assay (96 h MTS cell viability). The class given is cell-based. The settings on record: concentration of compound required to reduce the IC50 of Cisplatin alone by at least 3-fold. The procedure:
(§1) Compounds were screened for their ability to sensitize HCT116 colorectal cancer cells to Cisplatin using a 96 h cell viability (MTS) assay. […] Compounds and Cisplatin were then both added simultaneously to the cell media in 2-fold serial dilutions from a top final concentration of 10 μM as a full matrix of concentrations in a final cell volume of 200 μl, and the cells were then incubated at 37° C. in 5% CO2. After 96 h, 40 μl of MTS reagent (Promega G358a) was added to each well and the cells were incubated for 1 h at 37° C. in 5% CO2.

For test [2], the target named is intracellular ATR (Homo sapiens (Human), UniProt Q13535). In words: Cellular ATR Inhibition Assay (H2AX phosphorylation in hydroxyurea treated HT29 cells). The conditions noted are these: 2 mM hydroxyurea, phosphorylated H2AX-positive nuclei. In kind it is cell-based. The procedure: Compounds can be screened for their ability to inhibit intracellular ATR using an immunofluorescence microscopy assay to detect phosphorylation of the ATR substrate histone H2AX in hydroxyurea treated cells. HT29 cells are plated at 14,000 cells per well in 96-well black imaging plates (BD 353219) in McCoy's 5 A media (Sigma M8403) supplemented with 10% foetal bovine serum (JRH Biosciences 12003), Penicillin/Streptomycin solution diluted 1:100 (Sigma P7539), and 2 mM L-glutamine (Sigma G7513), and allowed to adhere overnight at 37° C. in 5% CO2. Compounds are then added to the cell media from a final concentration of 25 μM in 3-fold serial dilutions and the cells are incubated at 37° C. in 5% CO2. After 15 min, hydroxyurea (Sigma H8627) is added to a final concentration of 2 mM.
intracellular ATR, sequence (Q13535 whole entry): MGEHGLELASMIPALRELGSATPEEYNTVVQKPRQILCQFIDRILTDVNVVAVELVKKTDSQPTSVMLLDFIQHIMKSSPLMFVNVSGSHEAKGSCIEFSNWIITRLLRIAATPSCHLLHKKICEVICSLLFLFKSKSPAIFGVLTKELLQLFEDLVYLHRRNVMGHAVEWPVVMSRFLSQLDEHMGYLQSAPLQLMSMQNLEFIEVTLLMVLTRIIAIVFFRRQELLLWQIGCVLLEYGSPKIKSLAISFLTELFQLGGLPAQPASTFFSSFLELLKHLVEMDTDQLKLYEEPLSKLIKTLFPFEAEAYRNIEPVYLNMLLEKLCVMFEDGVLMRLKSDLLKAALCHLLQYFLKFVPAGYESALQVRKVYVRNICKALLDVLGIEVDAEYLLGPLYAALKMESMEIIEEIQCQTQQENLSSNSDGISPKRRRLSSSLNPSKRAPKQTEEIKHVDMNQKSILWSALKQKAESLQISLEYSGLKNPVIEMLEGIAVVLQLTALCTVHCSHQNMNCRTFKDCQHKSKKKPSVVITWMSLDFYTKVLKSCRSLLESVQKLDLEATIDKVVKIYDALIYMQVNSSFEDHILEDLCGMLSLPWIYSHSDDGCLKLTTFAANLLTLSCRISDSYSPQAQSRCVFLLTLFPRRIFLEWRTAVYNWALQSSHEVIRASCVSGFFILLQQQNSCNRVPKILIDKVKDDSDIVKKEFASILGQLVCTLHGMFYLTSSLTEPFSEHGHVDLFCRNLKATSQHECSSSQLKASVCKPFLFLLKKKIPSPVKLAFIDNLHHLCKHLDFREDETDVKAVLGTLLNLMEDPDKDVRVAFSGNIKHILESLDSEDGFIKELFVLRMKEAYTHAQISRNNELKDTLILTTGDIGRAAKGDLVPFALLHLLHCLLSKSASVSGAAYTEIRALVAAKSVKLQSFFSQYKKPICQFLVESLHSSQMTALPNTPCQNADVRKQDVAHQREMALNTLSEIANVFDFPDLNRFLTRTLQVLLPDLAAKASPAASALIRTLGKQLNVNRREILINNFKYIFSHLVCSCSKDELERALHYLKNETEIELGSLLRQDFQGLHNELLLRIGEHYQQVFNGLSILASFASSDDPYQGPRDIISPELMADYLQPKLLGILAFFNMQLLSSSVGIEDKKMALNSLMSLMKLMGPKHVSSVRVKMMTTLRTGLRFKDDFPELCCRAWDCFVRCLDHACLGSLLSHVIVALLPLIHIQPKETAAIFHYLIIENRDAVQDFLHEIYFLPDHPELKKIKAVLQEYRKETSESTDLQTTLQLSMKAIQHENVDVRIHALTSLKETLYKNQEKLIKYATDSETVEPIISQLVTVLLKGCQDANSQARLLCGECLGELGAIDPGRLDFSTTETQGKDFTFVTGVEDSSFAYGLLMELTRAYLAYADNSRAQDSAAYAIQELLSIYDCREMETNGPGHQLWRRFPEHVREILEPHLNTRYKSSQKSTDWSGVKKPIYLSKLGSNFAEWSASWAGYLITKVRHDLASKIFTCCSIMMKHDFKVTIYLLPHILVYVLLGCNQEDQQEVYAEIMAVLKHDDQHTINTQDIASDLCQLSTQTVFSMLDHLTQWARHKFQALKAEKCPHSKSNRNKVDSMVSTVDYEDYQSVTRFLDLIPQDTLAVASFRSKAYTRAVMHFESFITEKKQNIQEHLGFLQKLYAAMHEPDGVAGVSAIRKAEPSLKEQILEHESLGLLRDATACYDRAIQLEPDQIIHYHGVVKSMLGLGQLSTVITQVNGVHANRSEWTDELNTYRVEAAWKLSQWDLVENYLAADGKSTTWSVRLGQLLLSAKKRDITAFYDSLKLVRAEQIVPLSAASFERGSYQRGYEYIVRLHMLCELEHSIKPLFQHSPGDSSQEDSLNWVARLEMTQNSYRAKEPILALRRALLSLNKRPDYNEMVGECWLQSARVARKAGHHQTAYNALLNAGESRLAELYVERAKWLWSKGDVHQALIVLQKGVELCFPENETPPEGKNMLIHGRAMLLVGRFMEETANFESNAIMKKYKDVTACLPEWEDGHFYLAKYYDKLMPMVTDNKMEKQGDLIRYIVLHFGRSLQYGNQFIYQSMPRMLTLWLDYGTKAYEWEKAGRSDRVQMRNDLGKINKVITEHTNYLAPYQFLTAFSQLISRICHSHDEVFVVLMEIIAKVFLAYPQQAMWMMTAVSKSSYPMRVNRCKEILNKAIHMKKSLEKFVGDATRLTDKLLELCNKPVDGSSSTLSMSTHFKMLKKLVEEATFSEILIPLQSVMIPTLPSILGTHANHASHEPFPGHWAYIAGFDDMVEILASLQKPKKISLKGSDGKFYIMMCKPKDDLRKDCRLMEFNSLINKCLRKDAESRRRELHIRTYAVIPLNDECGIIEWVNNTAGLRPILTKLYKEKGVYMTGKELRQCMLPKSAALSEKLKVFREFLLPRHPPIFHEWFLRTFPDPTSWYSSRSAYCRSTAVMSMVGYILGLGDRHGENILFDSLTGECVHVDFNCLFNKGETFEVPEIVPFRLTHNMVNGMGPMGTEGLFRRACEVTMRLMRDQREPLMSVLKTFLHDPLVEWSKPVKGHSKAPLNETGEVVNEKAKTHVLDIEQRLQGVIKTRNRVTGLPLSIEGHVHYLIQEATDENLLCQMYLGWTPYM
intracellular ATR, sequence (Q8WXE1 whole entry partner): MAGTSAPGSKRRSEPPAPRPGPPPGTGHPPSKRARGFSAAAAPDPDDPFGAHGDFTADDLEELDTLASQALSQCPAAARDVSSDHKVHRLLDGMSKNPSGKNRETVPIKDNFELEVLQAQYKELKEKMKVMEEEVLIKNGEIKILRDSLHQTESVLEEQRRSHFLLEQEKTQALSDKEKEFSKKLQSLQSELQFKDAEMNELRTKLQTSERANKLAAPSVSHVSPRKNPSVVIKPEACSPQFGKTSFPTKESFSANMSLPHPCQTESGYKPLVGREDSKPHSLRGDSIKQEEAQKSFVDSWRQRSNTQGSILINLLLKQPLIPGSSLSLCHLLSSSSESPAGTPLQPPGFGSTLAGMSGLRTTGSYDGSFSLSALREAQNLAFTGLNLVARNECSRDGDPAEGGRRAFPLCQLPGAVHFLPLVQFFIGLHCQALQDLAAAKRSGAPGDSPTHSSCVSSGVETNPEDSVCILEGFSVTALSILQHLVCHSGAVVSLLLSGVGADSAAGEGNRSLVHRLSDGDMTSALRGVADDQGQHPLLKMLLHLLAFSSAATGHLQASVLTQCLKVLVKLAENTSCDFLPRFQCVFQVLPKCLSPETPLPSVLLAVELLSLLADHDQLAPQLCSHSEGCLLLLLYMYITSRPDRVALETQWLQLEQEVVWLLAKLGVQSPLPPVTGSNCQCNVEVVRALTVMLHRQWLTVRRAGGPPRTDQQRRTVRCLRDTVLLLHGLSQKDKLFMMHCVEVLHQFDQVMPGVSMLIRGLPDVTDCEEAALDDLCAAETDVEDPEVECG
After 45 min of treatment with hydroxyurea, the cells are washed in PBS, fixed for 10 min in 4% formaldehyde diluted in PBS (Polysciences Inc 18814), washed in 0.2% Tween-20 in PBS (wash buffer), and permeabilised for 10 min in 0.5% Triton X-100 in PBS, all at room temperature. The cells are then washed once in wash buffer and blocked for 30 min at room temperature in 10% goat serum (Sigma G9023) diluted in wash buffer (block buffer). […]
Cells are imaged for Alexa Fluor 488 and Hoechst intensity using the BD Pathway 855 Bioimager and Attovision software (BD Biosciences, Version 1.6/855) to quantify phosphorylated H2AX Ser139 and DNA staining, respectively. The percentage of phosphorylated H2AX-positive nuclei in a montage of 9 images at 20× magnification is then calculated for each well using BD Image Data Explorer software (BD Biosciences Version 2.2.15). […] The percentage of H2AX positive nuclei is finally plotted against concentration for each compound and IC50s for intracellular ATR inhibition are determined using Prism software(GraphPad Prism version 3.0cx for Macintosh, GraphPad Software, San Diego Calif., USA).

Test [3] has as its target full-length ATR (Homo sapiens (Human), UniProt Q13535). Kind of test: ATR Inhibition Assay (radioactive-phosphate incorporation). In kind it is biochemical. The gist of the method:
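Full-length human ATR (5 nM) was assayed at 25 °C in 50 mM Tris/HCl pH 7.5, 10 mM MgCl2, 1 mM DTT, with 10 μM [γ-33P]ATP and 800 μM peptide, after 10-min compound preincubation. Reactions were stopped after 24 h, captured on phosphocellulose and counted; Ki(app) came from non-linear regression of initial rates.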

Test [4] concerns HCT116 colorectal cancer cells. In words: HCT116 cell viability (MTS), compound alone. In kind it is cell-based. The conditions noted are these: Homo sapiens, HCT-116, 96 h, read-out: HTC116 (MTS) IC50. The procedure: as §1
Setting [5] is: 5 nM full-length ATR, 10 μM ATP, Ki(app), read-out: ATR Inhibition Assay Ki.

Read-outs that look alike come from different tables or passages of the source. A value given as a limit tells only on which side of the number the result lay.

full-length ATR, sequence (Q13535 whole entry): as the sequence (Q13535 whole entry) above

On to `CC(O)CNCc1ccc(-c2cc(-c3nc(-c4ccc(S(=O)(=O)C(C)C)cc4)cnc3N)on2)cc1` (centres unmarked) [IIA-11, 1-(4-(5-(3-amino-6-(4-(isopropylsulfonyl)phenyl)pyrazin-2-yl)isoxazol-3-yl)benzylamino)propan-2-ol], for which, in test [1], the “Synergy with Cisplatin (uM)” value is on record as “+++ (Compounds with an IC50 or Ki value of ≤100 nM are marked with “+++.”)”. Besides, the figures for the IC50 in test [2] and in test [4] were ≤ 100 nM and 100 to 1000 nM, respectively. Moreover, the Ki in test [3] (setting [5]) was ≤ 100 nM; in test [3] (read-out: ATR Ki), ≤ 10 nM. On to `CNCc1ccc(-c2nnc(-c3nc(-c4ccc(S(=O)(=O)C(C)C)cc4)cnc3N)o2)cc1` [IA-159, 5-(4-isopropylsulfonylphenyl)-3-[5-[4-(methylaminomethyl)phenyl]-1,3,4-oxadiazol-2-yl]pyrazin-2-amine], for which the “Synergy with Cisplatin (uM)” value in test [1] is given as “+++ (Compounds with an IC50 or Ki value of ≤100 nM are marked with “+++.”)”. Also, the IC50 is ≤ 100 nM in test [2] and 100 to 1000 nM in test [4]. In addition, the Ki in test [3] (setting [5]) is ≤ 100 nM; in test [3] (read-out: ATR Ki), ≤ 10 nM. As for `CS(=O)(=O)c1ccc(-c2cnc(N)c(C(=O)Nc3ccccc3)n2)cc1` [Compound I-82, 3-amino-6-(4-(methylsulfonyl)phenyl)-N-phenylpyrazine-2-carboxamide], in test [1], the “Synergy with Cisplatin (uM)” value is “++ (Compounds with an IC50 or Ki value >100 nM but ≤1 uM are marked with “++.”)”. The IC50 in test [2] and in test [4] was 1000 to 20000 nM in each case. The Ki in test [3] (setting [5]) is ≤ 100 nM; in test [3] (read-out: ATR Ki), 10 to 100 nM. For the compound `Cc1ccc2nc(-c3nc(-c4ccc(C(=O)N5CCCNCC5)cc4)cnc3N)[nH]c2c1` [Compound I-153, (4-(5-amino-6-(6-methyl-1H-benzo[d]imidazol-2-yl)pyrazin-2-yl)phenyl) (1,4-diazepan-1-yl)methanone], the Ki in test [3] (read-out: ATR Ki) is 10 to 100 nM.

As to `N#Cc1cc(C(=O)N2CCCNCC2)ccc1-c1cnc(N)c(-c2nnc(-c3cccs3)o2)n1` [IA-152, 2-(5-amino-6-(5-(thiophen-2-yl)-1,3,4-oxadiazol-2-yl)pyrazin-2-yl)-5-(1,4-diazepane-1-carbonyl)benzonitrile], the Ki in test [3] (read-out: ATR Ki) was ≤ 10 nM. Same read-out and setting: as for `Nc1ncc(-c2cccc3cccnc23)nc1-c1nnc(-c2ccccc2)o1` [IA-216, 3-(5-phenyl-1,3,4-oxadiazol-2-yl)-5-(8-quinolyl)pyrazin-2-amine], the figure is 100 to 5000 nM; as for `CS(=O)(=O)Nc1cccc(-c2cnc(N)c(-c3nnc(-c4ccccc4)o3)n2)c1` [IA-144, N-[3-[5-amino-6-(5-phenyl-1,3,4-oxadiazol-2-yl)pyrazin-2-yl]phenyl]methanesulfonamide], 10 to 100 nM; as for `CCn1cc(-c2cnc(N)c(-c3nnc(-c4ccccc4)o3)n2)cn1` [IA-210, 5-(1-ethylpyrazol-4-yl)-3-(5-phenyl-1,3,4-oxadiazol-2-yl)pyrazin-2-amine], 10 to 100 nM. On to `Nc1ncc(-c2cccc(N3CCOCC3)c2)nc1C(=O)Nc1ccccc1` [Compound I-12, 3-amino-6-(3-morpholinophenyl)-N-phenylpyrazine-2-carboxamide], for which, in test [3] (read-out: ATR Ki), the Ki was in the range of 100 to 5000 nM. The same measure, in the same setting: as for `COc1ccccc1-c1cnc(N)c(-c2nnc(-c3ccccc3)o2)n1` [IA-65], the figure is 100 to 5000 nM; as for `CC(=O)Nc1cccc(-c2cnc(N)c(-c3nnc(-c4ccccc4)o3)n2)c1` [IA-66], 10 to 100 nM. As for `CC(C)S(=O)(=O)c1ccc(-c2cnc(N)c(-c3nnc(-c4ccc(CNC5CCOC5)cc4F)o3)n2)cc1` (centres unmarked) [IA-345, 3-[5-[2-fluoro-4-[(tetrahydrofuran-3-ylamino)methyl]phenyl]-1,3,4-oxadiazol-2-yl]-5-(4-isopropylsulfonylphenyl)pyrazin-2-amine], the Ki in test [3] (read-out: ATR Ki) was ≤ 10 nM. In the case of `COc1ccc(OC)c(NC(=O)c2nc(-c3cccnc3)cnc2N)c1` [Compound I-107, 3-amino-N-(2,5-dimethoxyphenyl)-6-(pyridin-3-yl)pyrazine-2-carboxamide], the Ki in test [3] (read-out: ATR Ki) was 10 to 100 nM. The same measure, in the same setting: as for `Nc1ncc(-c2ccc(C(=O)N3CCCNCC3)cc2)nc1C(=O)Nc1ccc2c(c1)NNC2` [Compound V-28], the figure is 10 to 100 nM; as for `CNCc1ccc(NC(=O)c2nc(-c3ccc(S(=O)(=O)C(C)C)cc3)cnc2N)cc1` [VII-11], 10 to 100 nM; as for `Nc1ncc(-c2ccc(CO)cc2)nc1C(=O)Nc1ccccc1` [Compound I-16, 3-amino-6-(4-(hydroxymethyl)phenyl)-N-phenylpyrazine-2-carboxamide], 100 to 5000 nM.

Consider `CCCS(=O)(=O)c1ccc(-c2cnc(N)c(-c3nnc(-c4ccc(CNC)cc4)o3)n2)cc1` [IA-310, 3-[5-[4-(methylaminomethyl)phenyl]-1,3,4-oxadiazol-2-yl]-5-(4-propylsulfonylphenyl)pyrazin-2-amine], for which the Ki in test [3] (read-out: ATR Ki) is ≤ 10 nM. Still for that read-out and setting: next, `CC(C)S(=O)(=O)c1ccc(-c2cnc(N)c(-c3nnc(-c4ccccc4)o3)n2)c(C#N)c1` [IA-132, 2-[5-amino-6-(5-phenyl-1,3,4-oxadiazol-2-yl)pyrazin-2-yl]-5-isopropylsulfonyl-benzonitrile]: ≤ 10 nM; `Nc1ncc(-c2ccc(S(=O)(=O)N3CCNCC3)cc2)nc1-c1nnc(-c2ccccc2)o1` [IA-24]: 10 to 100 nM. Still for that read-out and setting: as for `CN(C)[C@@H]1CCN(C(=O)c2ccc(-c3cnc(N)c(-c4nnc(-c5ccccc5)o4)n3)cc2)C1` [IA-10], the figure is ≤ 10 nM.

Broadly, the IC50 is the concentration needed to halve the response being measured.
